In patent publication US20190336489A1, “NON PEPTIDE HETEROBIVALENT MOLECULES FOR TREATING INFLAMMATORY DISEASES” (GLAXOSMITHKLINE INTELLECTUAL PROPERTY DEVELOPMENT LIMITED, priority 2017, published 2019):
Read-outs that look alike come from different tables or passages of the source. Marks after values point to notes of the source that are not given here.

Tests used:
Assay type in all cases: cell-based
[1] = target: T1, CCR2 (Homo sapiens, UniProt P41597); assay: Antibody Dependent Cellular Cytotoxicity (ADCC) reporter assay, CCR2 target cells; conditions: for ADCC efficacy: maximum signal:background (S/B)
T1 construct: expressed in transfected cells; host or cells: CHOK1
Description: (§1) The compounds described herein have been characterized in an ADCC reporter assay (see Section 1.2 ADCC reporter for protocol). […] Furthermore, the assay also confirms that this formed complex can engage and activate the Fc receptors on immune cells. Lastly, the assay provides both potency (EC50) and efficacy (signal to background ratio) for each compound in a dose dependant manner.
(§2) This assay has four components • 1) Heterobivalent Compound consisting of a targeting ligand and a hapten connected by a linker (ranging from 10 uM-1 pM) • 2) A hapten antibody with functional Fc domain (typical concentrations are 0.01 ug/mL-200 ug/mL) • 3) Target cells—CHOK1 cells engineered to overexpress either CCR1, CCR2, or CCR3, or CEMNKR cells engineered to overexpress CCR5 (typically 1000-20,000 cells per well) • 4) Reporter cells—Jurkat cells engineered to express FcgRIIIa (ADCC reporter assay) and with a reporter gene (luciferase) under the control of the NFAT promoter (typically 3000-75,000 cells per well)
(§3) Reagents are combined in final volume of 20 uL in 384-well tissue culture treated plated.
(§4) All components are incubated together for ˜12-18 hours. Add BioGlo Detection reagent (from Promega) to lyse the cells and provide substrate for the luciferase reporter protein. Signal is measured on a microplate reader capable of measuring luminescence. Signal:Background is calculated by dividing the signal of a test well by the signal obtained when no compound is included in the assay. EC50 calculations were done using Graphpad Prism Software, specifically a nonlinear regression curve fit (Y=Bottom+(Top−Bottom)/(1+10^((Log EC50−X)*HillSlope)))

[2] = target: T2, CCR3 (Homo sapiens, UniProt P51677); assay: Antibody Dependent Cellular Cytotoxicity (ADCC) reporter assay, CCR3 target cells; conditions: for EC50 / ADCC efficacy: CHOK1 cells overexpressing CCR3; for EC50: Jurkat FcgRIIIa NFAT-luciferase reporter cells, EC50 class, read-out: ADCC potency; for ADCC efficacy: maximum signal:background (S/B)
T2 construct: expressed in transfected cells; host or cells: CHOK1
T2 sequence (P51677 1-355): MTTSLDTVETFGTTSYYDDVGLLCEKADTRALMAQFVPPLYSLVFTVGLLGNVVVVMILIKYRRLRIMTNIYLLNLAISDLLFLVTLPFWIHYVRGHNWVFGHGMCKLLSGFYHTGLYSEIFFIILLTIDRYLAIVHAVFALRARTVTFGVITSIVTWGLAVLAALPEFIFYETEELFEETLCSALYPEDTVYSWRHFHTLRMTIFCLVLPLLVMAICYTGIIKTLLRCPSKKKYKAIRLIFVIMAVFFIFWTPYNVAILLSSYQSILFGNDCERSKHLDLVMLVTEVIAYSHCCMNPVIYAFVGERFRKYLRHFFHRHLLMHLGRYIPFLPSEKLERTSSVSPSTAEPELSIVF
Description: as §1, §2, §3, §4

[3] = target: T3, CCR1 (Homo sapiens, UniProt P32246); assay: Antibody Dependent Cellular Cytotoxicity (ADCC) reporter assay, CCR1 target cells; conditions: CHOK1 cells overexpressing CCR1; for EC50: Jurkat FcgRIIIa NFAT-luciferase reporter cells, EC50 class, read-out: ADCC potency; for ADCC efficacy: maximum signal:background (S/B)
T3 construct: expressed in transfected cells; host or cells: CHOK1
T3 sequence (P32246 1-355): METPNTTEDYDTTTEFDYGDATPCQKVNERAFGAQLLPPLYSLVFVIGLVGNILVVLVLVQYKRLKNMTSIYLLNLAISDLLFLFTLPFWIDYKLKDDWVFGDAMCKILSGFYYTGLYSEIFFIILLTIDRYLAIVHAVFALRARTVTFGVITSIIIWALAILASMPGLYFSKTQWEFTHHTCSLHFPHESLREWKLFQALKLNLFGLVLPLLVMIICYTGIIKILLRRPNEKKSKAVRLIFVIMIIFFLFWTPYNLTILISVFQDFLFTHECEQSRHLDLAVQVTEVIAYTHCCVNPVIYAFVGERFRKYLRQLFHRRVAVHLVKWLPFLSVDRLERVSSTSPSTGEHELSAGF
Description: as §1, §2, §3, §4

[4] = CHOK1 cells overexpressing CCR2, Jurkat FcgRIIIa NFAT-luciferase reporter cells, EC50 class, read-out: ADCC potency
[5] = CHOK1 cells overexpressing CCR2

T1 sequence (P41597 whole entry, species assumed): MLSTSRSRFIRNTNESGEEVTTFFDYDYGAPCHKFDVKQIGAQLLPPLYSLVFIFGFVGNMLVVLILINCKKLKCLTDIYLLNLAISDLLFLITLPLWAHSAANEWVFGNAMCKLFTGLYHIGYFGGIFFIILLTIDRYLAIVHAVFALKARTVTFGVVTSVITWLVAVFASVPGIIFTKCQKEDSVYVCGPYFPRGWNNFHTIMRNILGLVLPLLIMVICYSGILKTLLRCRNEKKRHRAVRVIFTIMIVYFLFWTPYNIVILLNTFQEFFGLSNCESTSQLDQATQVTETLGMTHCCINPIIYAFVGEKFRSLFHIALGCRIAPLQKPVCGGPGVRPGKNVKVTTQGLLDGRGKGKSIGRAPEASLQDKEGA

SMILES | EC50 [3] [nM] | ADCC efficacy [3] | EC50 [2] [nM] | ADCC efficacy [2] | also measured
CC(C)(C)N1CCNC(C(=O)N2CCN(C(=O)Nc3nc(C(F)(F)F)c(Cl)s3)C(CCOC(=O)NCCOCCOCCOCCOCCOCCOCCOCCOCCOCCNc3ccc([N+](=O)[O-])cc3[N+](=O)[O-])C2)C1 (mixture of isomers) [Compound 18, 2-(4-(4-(Tert-butyl)piperazine-2-carbonyl)-1-((5-chloro-4-(trifluoromethyl)thiazol-2-yl)carbamoyl)piperazin-2-yl)ethyl (29-((2,4-dinitrophenyl)amino)-3,6,9,12,15,18,21,24,27-nonaoxanonacosyl)carbamate] | – | – | – | – | EC50 [1, 4]: < 1 nM; ADCC efficacy [1, 5]: +++^e (Maximum Signal:Background > 10 = +++); efficacy signal ([2]; ADCC reporter assay): robust; potency ([2]; ADCC reporter assay): nanomolar range
CC(C)[C@@H](NC(=O)c1cccc(C(=O)NCCOCCOCCOCCOCCOCCOCCOCCOCCOCCOCCOCCNC(=O)CCCC[C@@H]2SC[C@@H]3NC(=O)N[C@@H]32)c1)C(=O)N1CCC(c2ccc(Cl)cc2)CC1 [Compound 1, N1-((R)-1-(4-(4-chlorophenyl)piperidin-1-yl)-3-methyl-1-oxobutan-2-yl)-N3-(37-oxo-41-((3aS,4S,6aR)-2-oxohexahydro-1H-thieno[3,4-d]imidazol-4-yl)-3,6,9,12,15,18,21,24,27,30,33-undecaoxa-36-azahentetracontyl)isophthalamide] | 10 to 100 | +++^d (maximum signal:background > 11 = +++) | – | – | –
CC(C)[C@@H](NC(=O)c1cccc(C(=O)NCCOCCOCCOCCOCCNC(=O)CCCC[C@@H]2SC[C@@H]3NC(=O)N[C@@H]32)c1)C(=O)N1CCC(c2ccc(Cl)cc2)CC1 [Compound 2, N1-((R)-1-(4-(4-chlorophenyl)piperidin-1-yl)-3-methyl-1-oxobutan-2-yl)-N3-(16-oxo-20-((3aS,4S,6aR)-2-oxohexahydro-1H-thieno[3,4-d]imidazol-4-yl)-3,6,9,12-tetraoxa-15-azaicosyl)isophthalamide] | 100 to 1000 | ++^d (between 9-11 = ++) | – | – | –
CC(C)[C@@H](NC(=O)c1cccc(C(=O)NCCOCCOCCOCCOCCOCCOCCOCCNC(=O)CCCC[C@@H]2SC[C@@H]3NC(=O)N[C@@H]32)c1)C(=O)N1CCC(c2ccc(Cl)cc2)CC1 [Compound 3, N1-((R)-1-(4-(4-chlorophenyl)piperidin-1-yl)-3-methyl-1-oxobutan-2-yl)-N3-(25-oxo-29-((3aS,4S,6aR)-2-oxohexahydro-1H-thieno[3,4-d]imidazol-4-yl)-3,6,9,12,15,18,21-heptaoxa-24-azanonacosyl)isophthalamide] | 10 to 100 | ++^d (between 9-11 = ++) | – | – | –
CC(C)[C@@H](NC(=O)c1cccc(C(=O)NCCOCCOCCOCCOCCC(=O)NCCOCCOCCOCCOCCOCCOCCOCCOCCOCCOCCOCCNC(=O)CCCC[C@@H]2SC[C@@H]3NC(=O)N[C@@H]32)c1)C(=O)N1CCC(c2ccc(Cl)cc2)CC1 [Compound 4, N1-((R)-1-(4-(4-chlorophenyl)piperidin-1-yl)-3-methyl-1-oxobutan-2-yl)-N3-(15,53-dioxo-57-((3aS,4S,6aR)-2-oxohexahydro-1H-thieno[3,4-d]imidazol-4-yl)-3,6,9,12,19,22,25,28,31,34, 37,40,43,46,49-pentadecaoxa-16,52-diazaheptapentacontyl)isophthalamide] | 100 to 1000 | ++^d (between 9-11 = ++) | – | – | –
Cc1ccc2c(c1)NC[C@]21CCN(C[C@@H](O)C2CCN(C(=O)c3cc4c(OCCOCCOCCOCCNC(=O)CCC(=O)NCCOCCOCCOCCNc5ccc([N+](=O)[O-])cc5[N+](=O)[O-])cccc4[nH]3)CC2)C[C@H]1C [Compound 14, N1-(2-(2-(2-(2-((2-(4-((S)-2-((3S,3′S)-3′,6-dimethylspiro[indoline-3,4′-piperidin]-1′-yl)-1-hydroxyethyl)piperidine-1-carbonyl)-1H-indol-4-yl)oxy)ethoxy)ethoxy)ethoxy)ethyl)-N4-(2-(2-(2-(2-((2,4-dinitrophenyl)amino)ethoxy)ethoxy)ethoxy)ethyl)succinamide] | – | – | – | – | EC50 [1]: 100 to 1000 nM; ADCC efficacy [1, 5]: ++^e (>5 = ++)
Cc1ccc2c(c1)NC[C@]21CCN(C[C@@H](O)C2CCN(C(=O)c3cc4ccc(Oc5ccc(C(=O)N6CCN(CCCNc7ccc([N+](=O)[O-])cc7[N+](=O)[O-])CC6)cc5)cc4[nH]3)CC2)C[C@H]1C [Compound 15, (4-((S)-2-((3S,3′S)-3′,6-Dimethylspiro[indoline-3,4′-piperidin]-1′-yl)-1-hydroxyethyl)piperidin-1-yl)(6-(4-(4-(3-((2,4-dinitrophenyl)amino)propyl)piperazine-1-carbonyl)phenoxy)-1H-indol-2-yl)methanone] | – | – | – | – | EC50 [1, 4]: 1 to 10 nM; ADCC efficacy [1, 5]: +++^e (Maximum Signal:Background > 10 = +++)
O=C(NCc1ccc(C(=O)NCCCOCCOCCOCCCNc2ccc([N+](=O)[O-])cc2[N+](=O)[O-])cc1)NC[C@@H]1CN(Cc2ccc(Cl)c(Cl)c2)CCO1 [Compound 21, (R)-4-((3-((4-(3,4-dichlorobenzyl)morpholin-2-yl)methyl)ureido)methyl)-N-(3-(2-(2-(3-((2,4-dinitrophenyl)amino)propoxy)ethoxy)ethoxy)propyl)benzamide] | – | – | < 1 | +++^f (Maximum S:B > 20 = +++) | –
O=C(NCc1ccc(C(=O)NCCCOCCOCCOCCCNC(=S)Nc2ccc(-c3c4ccc(=O)cc-4oc4cc(O)ccc34)c(C(=O)O)c2)cc1)NC[C@H]1CN(Cc2ccc(Cl)c(Cl)c2)CCO1 [Compound 22, (S)-5-(3-(1-(4-((3-((4-(3,4-Dichlorobenzyl)morpholin-2-yl)methyl)ureido)methyl)phenyl)-1-oxo-6,9,12-trioxa-2-azapentadecan-15-yl)thioureido)-2-(6-hydroxy-3-oxo-3H-xanthen-9-yl)benzoic acid] | – | – | 1 to 10 | +++^f (Maximum S:B > 20 = +++) | –
O=C(CCC(=O)N[C@H]1CC[C@H](NC(=O)c2ccc(CNC(=O)NC[C@H]3CN(Cc4ccc(Cl)c(Cl)c4)CCO3)cc2)CC1)NCCCOCCOCCOCCCNc1ccc([N+](=O)[O-])cc1[N+](=O)[O-] [Compound 23, N1-((Trans)-4-(4-((3-(((S)-4-(3,4-Dichlorobenzyl)morpholin-2-yl)methyl)ureido)methyl)benzamido)cyclohexyl)-N4-(3-(2-(2-(3-((2,4-dinitrophenyl)amino)propoxy)ethoxy)ethoxy)propyl)succinamide] | – | – | < 1 | +++^f (Maximum S:B > 20 = +++) | –
CCCCN1C(=O)[C@@H]([C@H](O)C2CCCCC2)NC(=O)C12CCN(Cc1ccc(Oc3ccc(C(=O)NCCOCCOCCOCCOCCOCCOCCOCCOCCOCCNC(=S)Nc4ccc5c(c4)C(=O)OC54c5ccc(O)cc5Oc5cc(O)ccc54)cc3)cc1)CC2 [Compound 25, 4-(4-(((R)-1-butyl-3-((R)-cyclohexyl(hydroxy)methyl)-2,5-dioxo-1,4,9-triazaspiro[5.5]undecan-9-yl)methyl)phenoxy)-N-(1-((3′,6′-dihydroxy-3-oxo-3H-spiro[isobenzofuran-1,9′-xanthen]-5-yl)amino)-1-thioxo-5,8,11,14,17,20,23,26,29-nonaoxa-2-azahentriacontan-31-yl)benzamide] | – | – | 1 to 10 | +++^f (Maximum S:B > 20 = +++) | –
